The values below come from ChEMBL document CHEMBL3991601, “The target landscape of clinical kinase drugs” (Science, 2017).

One experiment has as its target T1, Activin receptor type-1B (Homo sapiens, UniProt P36896).
T1 sequence (P36896 whole entry): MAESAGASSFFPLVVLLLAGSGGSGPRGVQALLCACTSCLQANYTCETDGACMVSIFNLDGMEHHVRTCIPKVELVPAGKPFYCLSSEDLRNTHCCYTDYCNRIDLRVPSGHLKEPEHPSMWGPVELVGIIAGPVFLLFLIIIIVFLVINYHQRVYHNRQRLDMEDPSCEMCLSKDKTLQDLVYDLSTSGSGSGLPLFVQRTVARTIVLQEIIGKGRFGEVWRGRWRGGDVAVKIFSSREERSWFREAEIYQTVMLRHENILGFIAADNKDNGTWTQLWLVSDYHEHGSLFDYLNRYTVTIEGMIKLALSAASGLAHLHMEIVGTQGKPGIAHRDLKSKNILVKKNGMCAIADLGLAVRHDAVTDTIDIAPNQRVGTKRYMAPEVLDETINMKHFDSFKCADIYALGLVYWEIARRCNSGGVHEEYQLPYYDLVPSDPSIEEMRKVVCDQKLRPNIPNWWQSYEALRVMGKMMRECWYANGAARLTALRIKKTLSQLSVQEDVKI

Experiment [1] addresses Casein kinase I isoform alpha (Homo sapiens, UniProt P48729).
The target in a further experiment is GTP-binding protein 4 (Homo sapiens, UniProt Q9BZE4).
Experiment [2] addresses Tyrosine-protein kinase JAK1 (Homo sapiens, UniProt P23458).
The target in experiment [3] is Rho-associated protein kinase 1 (Homo sapiens, UniProt Q13464).
Another experiment concerns the target T2, Septin-9 (Homo sapiens, UniProt Q9UHD8).
T2 sequence (Q9UHD8 whole entry): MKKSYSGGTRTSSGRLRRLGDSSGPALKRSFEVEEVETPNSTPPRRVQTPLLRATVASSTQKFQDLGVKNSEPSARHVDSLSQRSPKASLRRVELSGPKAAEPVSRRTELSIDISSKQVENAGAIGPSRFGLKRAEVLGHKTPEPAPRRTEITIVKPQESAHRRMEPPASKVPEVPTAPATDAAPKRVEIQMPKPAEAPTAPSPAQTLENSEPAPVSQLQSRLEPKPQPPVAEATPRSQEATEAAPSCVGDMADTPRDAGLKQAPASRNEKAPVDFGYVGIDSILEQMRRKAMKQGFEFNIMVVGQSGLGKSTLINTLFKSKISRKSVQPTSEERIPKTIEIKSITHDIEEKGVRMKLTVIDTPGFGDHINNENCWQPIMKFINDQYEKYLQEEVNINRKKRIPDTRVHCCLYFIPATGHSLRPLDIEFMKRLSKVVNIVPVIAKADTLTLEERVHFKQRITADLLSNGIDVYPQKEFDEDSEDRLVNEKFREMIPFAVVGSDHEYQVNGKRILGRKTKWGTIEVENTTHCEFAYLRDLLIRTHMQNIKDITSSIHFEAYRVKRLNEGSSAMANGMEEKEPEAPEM

Experiment [4] concerns the target T3, Serine/threonine-protein kinase TAO2 (Homo sapiens, UniProt Q9UL54).
T3 sequence (Q9UL54 whole entry): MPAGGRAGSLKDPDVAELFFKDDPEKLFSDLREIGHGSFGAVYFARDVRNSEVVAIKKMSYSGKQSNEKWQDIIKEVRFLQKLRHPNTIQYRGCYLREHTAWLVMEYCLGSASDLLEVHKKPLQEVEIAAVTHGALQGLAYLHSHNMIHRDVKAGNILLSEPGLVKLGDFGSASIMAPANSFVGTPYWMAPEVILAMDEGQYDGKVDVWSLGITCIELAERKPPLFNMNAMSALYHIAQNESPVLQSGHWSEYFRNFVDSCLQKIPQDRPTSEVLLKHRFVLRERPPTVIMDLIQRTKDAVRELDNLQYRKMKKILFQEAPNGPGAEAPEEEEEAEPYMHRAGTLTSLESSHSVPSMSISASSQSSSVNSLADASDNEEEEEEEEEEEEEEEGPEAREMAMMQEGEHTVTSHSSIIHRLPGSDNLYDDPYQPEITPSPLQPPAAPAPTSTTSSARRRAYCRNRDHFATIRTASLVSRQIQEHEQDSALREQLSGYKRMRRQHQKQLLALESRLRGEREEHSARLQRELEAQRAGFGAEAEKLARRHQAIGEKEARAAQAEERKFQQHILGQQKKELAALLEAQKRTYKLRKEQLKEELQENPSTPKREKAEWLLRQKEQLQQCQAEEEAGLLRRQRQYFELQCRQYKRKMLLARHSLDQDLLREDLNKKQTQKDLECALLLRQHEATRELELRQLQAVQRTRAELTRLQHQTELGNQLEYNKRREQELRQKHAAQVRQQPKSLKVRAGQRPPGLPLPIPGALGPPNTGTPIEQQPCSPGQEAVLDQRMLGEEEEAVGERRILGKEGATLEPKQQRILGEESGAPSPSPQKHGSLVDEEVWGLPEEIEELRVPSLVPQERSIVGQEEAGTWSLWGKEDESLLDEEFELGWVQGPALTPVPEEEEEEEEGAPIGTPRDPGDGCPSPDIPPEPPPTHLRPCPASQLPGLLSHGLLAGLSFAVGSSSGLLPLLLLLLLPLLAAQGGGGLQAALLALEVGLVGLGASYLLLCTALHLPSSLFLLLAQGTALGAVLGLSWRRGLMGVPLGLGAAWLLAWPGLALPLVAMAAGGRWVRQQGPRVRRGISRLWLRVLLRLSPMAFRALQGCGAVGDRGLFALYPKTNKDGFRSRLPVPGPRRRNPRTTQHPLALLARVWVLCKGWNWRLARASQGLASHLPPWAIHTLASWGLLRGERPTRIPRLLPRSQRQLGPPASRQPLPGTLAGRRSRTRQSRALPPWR

Experiment [5] deals with T4, Serine/threonine-protein kinase ULK3 (Homo sapiens, UniProt Q6PHR2).
T4 sequence (Q6PHR2 whole entry): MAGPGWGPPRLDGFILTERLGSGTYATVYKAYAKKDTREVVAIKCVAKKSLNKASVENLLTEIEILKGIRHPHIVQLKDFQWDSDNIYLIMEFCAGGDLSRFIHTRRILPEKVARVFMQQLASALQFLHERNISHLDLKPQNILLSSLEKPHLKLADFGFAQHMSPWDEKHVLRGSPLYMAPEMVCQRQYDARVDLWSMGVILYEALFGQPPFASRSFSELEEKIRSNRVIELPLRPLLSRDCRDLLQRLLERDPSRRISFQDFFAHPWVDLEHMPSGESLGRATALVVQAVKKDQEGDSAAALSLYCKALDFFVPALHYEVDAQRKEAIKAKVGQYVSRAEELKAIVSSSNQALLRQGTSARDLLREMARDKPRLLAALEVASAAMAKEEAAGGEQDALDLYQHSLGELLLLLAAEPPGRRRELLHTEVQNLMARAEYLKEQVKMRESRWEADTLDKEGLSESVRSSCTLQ

The source made the active and inactive calls. For most assays here, no stated cut-off is given here; in the data, actives have a measured Kd and inactives only a lower limit. A value given as a limit tells only on which side of the number the result lay.

Chain of Casein kinase I isoform alpha (P48729 whole entry, canonical isoform): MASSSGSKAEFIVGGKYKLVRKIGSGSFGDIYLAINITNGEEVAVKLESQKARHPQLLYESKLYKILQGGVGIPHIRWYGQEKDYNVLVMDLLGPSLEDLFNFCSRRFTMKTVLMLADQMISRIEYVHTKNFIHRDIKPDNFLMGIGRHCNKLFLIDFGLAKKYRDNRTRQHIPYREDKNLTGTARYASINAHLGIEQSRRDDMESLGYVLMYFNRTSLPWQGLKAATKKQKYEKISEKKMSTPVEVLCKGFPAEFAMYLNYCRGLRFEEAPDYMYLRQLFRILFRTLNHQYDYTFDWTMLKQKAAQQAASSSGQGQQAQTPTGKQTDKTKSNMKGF
Chain of Tyrosine-protein kinase JAK1 (P23458 whole entry): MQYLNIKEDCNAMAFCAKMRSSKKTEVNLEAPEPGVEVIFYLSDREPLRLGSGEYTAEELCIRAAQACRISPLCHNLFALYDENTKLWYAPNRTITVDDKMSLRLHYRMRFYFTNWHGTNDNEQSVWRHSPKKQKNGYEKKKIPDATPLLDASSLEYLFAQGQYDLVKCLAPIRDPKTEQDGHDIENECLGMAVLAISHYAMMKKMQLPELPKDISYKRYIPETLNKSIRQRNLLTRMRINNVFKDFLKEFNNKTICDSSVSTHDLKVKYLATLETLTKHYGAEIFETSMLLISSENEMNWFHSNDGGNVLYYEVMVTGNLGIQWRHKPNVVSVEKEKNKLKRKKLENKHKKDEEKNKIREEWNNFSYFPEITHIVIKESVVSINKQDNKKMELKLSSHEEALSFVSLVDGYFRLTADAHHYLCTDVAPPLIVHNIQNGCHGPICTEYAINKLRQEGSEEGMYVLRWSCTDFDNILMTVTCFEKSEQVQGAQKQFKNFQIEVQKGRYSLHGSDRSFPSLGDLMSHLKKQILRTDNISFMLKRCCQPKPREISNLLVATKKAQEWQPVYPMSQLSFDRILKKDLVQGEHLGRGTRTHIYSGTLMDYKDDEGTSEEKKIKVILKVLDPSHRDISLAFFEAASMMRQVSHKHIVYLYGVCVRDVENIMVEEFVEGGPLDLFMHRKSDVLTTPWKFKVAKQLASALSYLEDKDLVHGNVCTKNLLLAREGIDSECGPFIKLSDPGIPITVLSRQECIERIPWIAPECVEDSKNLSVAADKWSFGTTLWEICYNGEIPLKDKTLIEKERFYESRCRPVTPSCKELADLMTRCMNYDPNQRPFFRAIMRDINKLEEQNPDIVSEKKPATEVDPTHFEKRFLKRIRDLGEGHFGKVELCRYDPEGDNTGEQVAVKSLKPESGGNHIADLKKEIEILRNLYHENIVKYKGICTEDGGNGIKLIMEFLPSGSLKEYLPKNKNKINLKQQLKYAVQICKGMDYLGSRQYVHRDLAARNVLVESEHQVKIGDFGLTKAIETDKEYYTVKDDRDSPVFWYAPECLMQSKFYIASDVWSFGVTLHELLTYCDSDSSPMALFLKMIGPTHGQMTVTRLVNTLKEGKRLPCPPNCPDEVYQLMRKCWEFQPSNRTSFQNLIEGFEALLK
Chain of Rho-associated protein kinase 1 (Q13464 whole entry): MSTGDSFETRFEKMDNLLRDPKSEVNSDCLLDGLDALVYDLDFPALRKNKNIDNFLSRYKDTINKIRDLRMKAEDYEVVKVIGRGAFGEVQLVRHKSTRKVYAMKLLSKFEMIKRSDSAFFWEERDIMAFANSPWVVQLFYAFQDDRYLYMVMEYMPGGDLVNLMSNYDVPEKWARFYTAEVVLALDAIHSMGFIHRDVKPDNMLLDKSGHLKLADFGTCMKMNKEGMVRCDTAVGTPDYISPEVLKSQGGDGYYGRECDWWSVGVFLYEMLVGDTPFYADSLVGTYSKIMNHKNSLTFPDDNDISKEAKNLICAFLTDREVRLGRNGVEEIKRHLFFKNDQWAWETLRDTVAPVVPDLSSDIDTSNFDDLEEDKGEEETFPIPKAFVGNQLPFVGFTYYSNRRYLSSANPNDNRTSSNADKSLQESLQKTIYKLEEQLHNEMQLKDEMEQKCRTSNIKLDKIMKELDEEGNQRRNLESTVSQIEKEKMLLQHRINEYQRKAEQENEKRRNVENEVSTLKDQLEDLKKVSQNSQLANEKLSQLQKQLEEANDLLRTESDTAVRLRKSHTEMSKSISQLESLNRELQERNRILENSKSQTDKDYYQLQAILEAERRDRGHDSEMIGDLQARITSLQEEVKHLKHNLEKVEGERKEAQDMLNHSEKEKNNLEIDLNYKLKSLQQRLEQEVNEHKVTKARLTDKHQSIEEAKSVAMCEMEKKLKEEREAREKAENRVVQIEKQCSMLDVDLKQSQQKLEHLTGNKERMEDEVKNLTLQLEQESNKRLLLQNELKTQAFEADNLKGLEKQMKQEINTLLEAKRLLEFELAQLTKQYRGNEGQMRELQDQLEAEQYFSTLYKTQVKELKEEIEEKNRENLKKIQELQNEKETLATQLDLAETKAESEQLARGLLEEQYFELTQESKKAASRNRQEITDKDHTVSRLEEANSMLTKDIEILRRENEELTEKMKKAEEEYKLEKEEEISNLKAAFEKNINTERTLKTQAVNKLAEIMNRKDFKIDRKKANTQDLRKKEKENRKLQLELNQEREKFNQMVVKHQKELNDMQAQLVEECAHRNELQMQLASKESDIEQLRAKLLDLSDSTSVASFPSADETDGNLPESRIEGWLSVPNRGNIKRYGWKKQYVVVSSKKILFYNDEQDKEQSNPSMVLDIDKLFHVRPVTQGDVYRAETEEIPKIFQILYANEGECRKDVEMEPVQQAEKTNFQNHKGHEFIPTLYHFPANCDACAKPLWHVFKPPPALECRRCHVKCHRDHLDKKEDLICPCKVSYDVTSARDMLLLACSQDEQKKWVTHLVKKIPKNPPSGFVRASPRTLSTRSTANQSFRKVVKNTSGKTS

As usually defined, the Kd is a measure of binding affinity in units of concentration. With `Cn1ncc(Cl)c1-c1cc(C(=O)N[C@H](CN)Cc2cccc(F)c2)sc1Cl` [AFURESERTIB], the Kd on Activin receptor type-1B is > 30 µM (inactive); in experiment [1], > 30 µM (inactive); at GTP-binding protein 4, > 30 µM (inactive); in experiment [2], > 30 µM (inactive); in experiment [3] it was 2.14 µM (active); on Septin-9, > 30 µM (inactive). For the same compound, the Kd in experiment [4] and in experiment [5] was > 30 µM (inactive) throughout.
Turning to `CNC(=O)CN1CCC(Oc2cc3c(Nc4cccc(Cl)c4F)ncnc3cc2OC)CC1` [SAPITINIB], the Kd (at Activin receptor type-1B; in experiment [1]; on GTP-binding protein 4; in experiment [2]; in experiment [3]; at Septin-9) was > 30 µM (inactive) in each case. The Kd in experiment [4] and in experiment [5] was > 30 µM (inactive) each time.
As to `CC(=O)Nc1cccc(-n2c(=O)n(C3CC3)c(=O)c3c(Nc4ccc(I)cc4F)n(C)c(=O)c(C)c32)c1` [TRAMETINIB], the Kd (on Activin receptor type-1B; in experiment [1]; on GTP-binding protein 4; in experiment [2]; in experiment [3]; at Septin-9) was > 30 µM (inactive) each time. In addition, the Kd in experiment [4] and in experiment [5] was > 30 µM (inactive) in each case.
Consider `COC(=O)N[C@@H](C)CNc1nccc(-c2cn(C(C)C)nc2-c2cc(Cl)cc(NS(C)(=O)=O)c2F)n1` [ENCORAFENIB], for which the Kd at Activin receptor type-1B is > 30 µM (inactive); in experiment [1] it was 3.33 µM (active); at GTP-binding protein 4, > 30 µM (inactive); in experiment [2] it was > 30 µM (inactive); in experiment [3], > 30 µM (inactive); at Septin-9, > 30 µM (inactive). The Kd in experiment [4] and in experiment [5] was > 30 µM (inactive) in each case.
On to `CNC(=O)c1ccc(-c2cnc3ncc(Cc4ccc5ncccc5c4)n3n2)cc1F` [CAPMATINIB], for which the Kd (at Activin receptor type-1B; in experiment [1]; at GTP-binding protein 4; in experiment [2]; in experiment [3]; on Septin-9) was > 30 µM (inactive) throughout. Moreover, the Kd in experiment [4] and in experiment [5] was > 30 µM (inactive) throughout.
As for `COC(=O)[C@@]1(O)C[C@H]2O[C@]1(C)n1c3ccccc3c3c4c(c5c6ccccc6n2c5c31)C(=O)NC4` [K-252A], the Kd on Activin receptor type-1B was 15.3 µM (active); in experiment [1], > 30 µM (inactive); on GTP-binding protein 4, > 30 µM (inactive); in experiment [2], > 30 µM (inactive); in experiment [3], > 30 µM (inactive); on Septin-9 it was > 30 µM (inactive). Moreover, the figures for the Kd in experiment [4] and in experiment [5] were > 30 µM (inactive) and 0.107 µM (active), respectively.
As to `CNS(=O)(=O)Nc1nccc(Cc2c(C)c3ccc(Oc4ncccn4)cc3oc2=O)c1F` [AVUTOMETINIB], the Kd (on Activin receptor type-1B; in experiment [1]; on GTP-binding protein 4; in experiment [2]; in experiment [3]; on Septin-9) was > 30 µM (inactive) throughout. The Kd in experiment [4] and in experiment [5] was > 30 µM (inactive) each time.
With `COc1ccc(-c2ccc3c(N4CCOC[C@@H]4C)nc(N4CCOC[C@@H]4C)nc3n2)cc1CO` [AZD-8055], the Kd (on Activin receptor type-1B; in experiment [1]; at GTP-binding protein 4; in experiment [2]; in experiment [3]; at Septin-9) was > 30 µM (inactive) each time. Further, the Kd in experiment [4] and in experiment [5] was > 30 µM (inactive) throughout.
For `O=C(O)[C@]1(Cc2cccc(Nc3nccs3)n2)CC[C@@H](Oc2cccc(Cl)c2F)CC1` [MK-5108], the Kd at Activin receptor type-1B was 0.425 µM (active); in experiment [1], > 30 µM (inactive); at GTP-binding protein 4, > 30 µM (inactive); in experiment [2], > 30 µM (inactive); in experiment [3], > 30 µM (inactive); on Septin-9 it was > 30 µM (inactive). Also, the Kd in experiment [4] and in experiment [5] was > 30 µM (inactive) in each case.
For the compound `O=C1NC(=O)/C(=C/c2ccc3nccc(-c4ccncc4)c3c2)S1` [GSK-1059615], the Kd (at Activin receptor type-1B; in experiment [1]; at GTP-binding protein 4; in experiment [2]; in experiment [3]; at Septin-9) was > 30 µM (inactive) in each case. In addition, the Kd in experiment [4] and in experiment [5] was > 30 µM (inactive) each time.
With `Cc1c(F)cc(C(=O)NC2CC2)cc1-c1ccc(C(=O)NCC(C)(C)C)cn1` [LOSMAPIMOD], the Kd (on Activin receptor type-1B; in experiment [1]; at GTP-binding protein 4; in experiment [2]; in experiment [3]; at Septin-9) was > 30 µM (inactive) in each case. In addition, the Kd in experiment [4] and in experiment [5] was > 30 µM (inactive) in each case.
Turning to `C=CC(=O)N1CCC(Oc2cc3c(Nc4ccc(Cl)c(Cl)c4F)ncnc3cc2OC)CC1` [POZIOTINIB], the Kd (on Activin receptor type-1B; in experiment [1]; on GTP-binding protein 4; in experiment [2]; in experiment [3]; on Septin-9) was > 30 µM (inactive) throughout. Further, the Kd in experiment [4] and in experiment [5] was > 30 µM (inactive) throughout.
